In brackets after ≈: the same amount, converted by molar mass.
Key:
Type in all cases: cell-based
[1] = tested on: Haemophilus influenzae QK12/87; assay: MIC, standard agar dilution method using HTM medium; settings: for MIC: read-out: minimum inhibitory concentration (MIC), Strain I
From the text: (§1) The biological activities of compounds of the present invention against Haemophilus influenzae have been determined by standard agar dilution method using HTM medium (National Committee for Clinical Laboratory Standards. 2000. Methods for Dilution Antimicrobial Susceptibility Tests for Bacteria that Grow Aerobically, 5th edition. Approved standard M7-A5. National Committee for Clinical Laboratory Standards, Wayne, Pa.).

[2] = tested on: Haemophilus influenzae B1501; assay: as above; settings: for MIC: read-out: minimum inhibitory concentration (MIC), Strain M
From the text: as §1

[3] = tested on: Haemophilus influenzae QK50; assay: as above; settings: for MIC: read-out: minimum inhibitory concentration (MIC), Strain L
From the text: as §1

[4] = tested on: Haemophilus influenzae 12214; assay: as above; settings: for MIC: read-out: minimum inhibitory concentration (MIC), Strain K
From the text: as §1

[5] = tested on: Streptococcus pneumoniae ¼; assay: MIC, standard microdilution technique; settings: for MIC: read-out: minimum inhibitory concentration (MIC), Strain F
From the text: (§2) The antibacterial activities of the compounds have been determined by standard microdilution technique (National Committee for Clinical Laboratory Standards. 2000. Methods for Dilution Antimicrobial Susceptibility Tests for Bacteria that Grow Aerobically, 5th edition. Approved standard M7-A5. National Committee for Clinical Laboratory Standards, Wayne, Pa.).

[6] = tested on: Streptococcus pneumoniae SL199T; assay: MIC, standard microdilution technique; settings: for MIC: read-out: minimum inhibitory concentration (MIC), Strain G
From the text: as §2

[7] = tested on: Escherichia coli ATCC 25922; assay: MIC, standard microdilution technique; settings: for MIC: ATCC25922, read-out: minimum inhibitory concentration (MIC), Strain D
From the text: as §2

[8] = tested on: Streptococcus pneumoniae l/l; assay: MIC, standard microdilution technique; settings: for MIC: read-out: minimum inhibitory concentration (MIC), Strain E
From the text: as §2

[9] = tested on: Staphylococcus aureus 1086; assay: MIC, standard microdilution technique; settings: for MIC: read-out: minimum inhibitory concentration (MIC), Strain B
From the text: as §2

[10] = tested on: Streptococcus pneumoniae 12288; assay: MIC, standard microdilution technique; settings: for MIC: read-out: minimum inhibitory concentration (MIC), Strain H
From the text: as §2

[11] = tested on: Staphylococcus aureus 745; assay: MIC, standard microdilution technique; settings: for MIC: read-out: minimum inhibitory concentration (MIC), Strain C
From the text: as §2

[12] = tested on: Staphylococcus aureus ATCC 29213; assay: MIC, standard microdilution technique; settings: for MIC: ATCC29213, read-out: minimum inhibitory concentration (MIC), Strain A
From the text: as §2

Compound | minimum inhibitory concentration (MIC), Strain I [1] | minimum inhibitory concentration (MIC), Strain M [2] | minimum inhibitory concentration (MIC), Strain L [3] | minimum inhibitory concentration (MIC), Strain K [4] | minimum inhibitory concentration (MIC), Strain F [5] | minimum inhibitory concentration (MIC), Strain G [6] | minimum inhibitory concentration (MIC), Strain D [7] | minimum inhibitory concentration (MIC), Strain E [8] | minimum inhibitory concentration (MIC), Strain B [9] | minimum inhibitory concentration (MIC), Strain H [10] | minimum inhibitory concentration (MIC), Strain C [11] | minimum inhibitory concentration (MIC), Strain A [12] | further results
CC[C@H]1OC(=O)[C@@](C)(F)C(=O)[C@H](C)[C@@H](O[C@@H]2O[C@H](C)C[C@H](N(C)C)[C@H]2O)[C@](C)(OC)C[C@@H](C)C(=O)[C@H](C)[C@H]2[C@@H](SCCOCn3cc(C)c(=O)[nH]c3=O)C(=O)O[C@@]21C (single isomer, unassigned) [Example 14, (3R or S) 3aR, 4R or S, 6R, 8R, 9R, 10R, 12S, 15R, 15aS)-15-Ethyl-12-fluorooctahydro-8-methoxy-4,6,8,10,12,15a-hexamethyl-3-[[2-[[5-methyl-2,4-(1H,3H)-pyrimidinedione-1-yl]methoxy]ethyl]thio]-9-[[3,4,6-trideoxy-3-(dimethylamino)-β-D-xylo-hexopyranosyl]oxy]-2H-furo [2,3-c] oxacyclotetradecin-2,5,11,13 (3H,6H,12H)-tetrone] | 2 µg/mL (≈ 2.37 µM) | 2 µg/mL (≈ 2.37 µM) | 2 µg/mL (≈ 2.37 µM) | 2 µg/mL (≈ 2.37 µM) | 2 µg/mL (≈ 2.37 µM) | 1 µg/mL (≈ 1.18 µM) | >32 µg/mL | <=0.06 μg/ml | <=0.06 μg/ml | 16 µg/mL (≈ 19 µM) | >32 µg/mL | <=0.06 μg/ml | –
CC[C@H]1OC(=O)[C@H](C)C(=O)[C@H](C)[C@@H](O[C@@H]2O[C@H](C)C[C@H](N(C)C)[C@H]2O)[C@](C)(OC)C[C@@H](C)C(=O)[C@H](C)[C@H]2[C@@H](SCCNC(=O)c3cccnc3)C(=O)O[C@@]21C (single isomer, unassigned) [Example 19, (3R or S, 3aR, 4R or S, 6R, 8R, 9R, 10R, 12R, 15R, 15aS) -15-Ethyloctahydro-8-methoxy-4,6,8,10,12,15a-hexamethyl-3-[[2-[(3-pyridinylcarbonyl)amino]ethyl]thio]-9-[[-3,4,6-trideoxy-3-(dimethylamino)-β-D-xylo-hexopyranosyl]oxy]-2H-furo [2,3-c] oxacyclotetradecin-2,5,11,13 (3H,6H,12H)-tetrone] | – | – | – | – | – | – | – | – | – | – | – | – | MIC [1]: 4 µg/mL (≈ 5.05 µM); MIC [2]: 4 µg/mL (≈ 5.05 µM); MIC [3]: 8 µg/mL (≈ 10.1 µM); MIC [4]: 4 µg/mL (≈ 5.05 µM); MIC [5]: 2 µg/mL (≈ 2.53 µM); MIC [6]: 32 µg/mL (≈ 40.4 µM); MIC [7]: > 32 µg/mL; MIC [8]: 0.125 µg/mL (≈ 0.158 µM); MIC [9]: 0.25 µg/mL (≈ 0.316 µM); MIC [10]: > 32 µg/mL; MIC [11]: > 32 µg/mL; MIC [12]: 0.25 µg/mL (≈ 0.316 µM)
CC[C@H]1OC(=O)[C@H](C)C(=O)[C@H](C)[C@@H](O[C@@H]2O[C@H](C)C[C@H](N(C)C)[C@H]2O)[C@](C)(OC)C[C@@H](C)C(=O)[C@H](C)[C@H]2[C@@H](SCCNS(=O)(=O)c3ccc(-c4ccccn4)s3)C(=O)O[C@@]21C (single isomer, unassigned) [Example 21] | 32 µg/mL (≈ 35.2 µM) | 16 µg/mL (≈ 17.6 µM) | 16 µg/mL (≈ 17.6 µM) | 16 µg/mL (≈ 17.6 µM) | 8 µg/mL (≈ 8.79 µM) | 16 µg/mL (≈ 17.6 µM) | >32 µg/mL | <=0.06 μg/ml | 0.125 µg/mL (≈ 0.137 µM) | 32 µg/mL (≈ 35.2 µM) | >32 µg/mL | 0.125 µg/mL (≈ 0.137 µM) | –
CC[C@H]1OC(=O)[C@H](C)C(=O)[C@H](C)[C@@H](O[C@@H]2O[C@H](C)C[C@H](N(C)C)[C@H]2O)[C@](C)(OC)C[C@@H](C)C(=O)[C@H](C)[C@H]2[C@@H](SCC#Cc3ccc(C#N)cc3)C(=O)O[C@@]21C (single isomer, unassigned) [Example 23] | >32 µg/mL | >32 µg/mL | >32 µg/mL | >32 µg/mL | >32 µg/mL | >32 µg/mL | >32 µg/mL | 1 µg/mL (≈ 1.28 µM) | 16 µg/mL (≈ 20.4 µM) | >32 µg/mL | >32 µg/mL | 16 µg/mL (≈ 20.4 µM) | –
CC[C@H]1OC(=O)[C@@](C)(F)C(=O)[C@H](C)[C@@H](O[C@@H]2O[C@H](C)C[C@H](N(C)C)[C@H]2O)[C@](C)(OC)C[C@@H](C)C(=O)[C@H](C)[C@H]2[C@@H](SCC(=O)Nc3cccc4cccnc34)C(=O)O[C@@]21C (single isomer, unassigned) [Example 25] | 8 µg/mL (≈ 9.46 µM) | 8 µg/mL (≈ 9.46 µM) | 4 µg/mL (≈ 4.73 µM) | 4 µg/mL (≈ 4.73 µM) | 0.125 µg/mL (≈ 0.148 µM) | 2 µg/mL (≈ 2.36 µM) | >32 µg/mL | <=0.06 μg/ml | 0.125 µg/mL (≈ 0.148 µM) | 4 µg/mL (≈ 4.73 µM) | 32 µg/mL (≈ 37.8 µM) | 0.25 µg/mL (≈ 0.295 µM) | –
CC[C@H]1OC(=O)[C@H](C)C(=O)[C@H](C)[C@@H](O[C@@H]2O[C@H](C)C[C@H](N(C)C)[C@H]2O)[C@](C)(OC)C[C@@H](C)C(=O)[C@H](C)[C@H]2[C@@H](SCCNC(=O)c3cnc4ccccc4c3)C(=O)O[C@@]21C (single isomer, unassigned) [Example 27, (3R or S, 3aR, 4R or S, 6R, 8R, 9R, 10R, 12R, 15R, 15aS)-15-Ethyloctahydro-8-methoxy-4,6,8,10,12,15a-hexamethyl-3-[[2-[(3-quinolinylcarbonyl)amino]ethyl]thio]-9-[[3,4,6-trideoxy-3-(dimethylamino)-β-D-xylo-hexopyranosyl]oxy]-2H-furo [2,3-c] oxacyclotetradecin-2,5,11,13 (3H,6H,12H)-tetrone] | – | – | – | – | – | – | – | – | – | – | – | – | MIC [1]: 16 µg/mL (≈ 19 µM); MIC [2]: 8 µg/mL (≈ 9.5 µM); MIC [3]: 16 µg/mL (≈ 19 µM); MIC [4]: 16 µg/mL (≈ 19 µM); MIC [5]: 8 µg/mL (≈ 9.5 µM); MIC [6]: 8 µg/mL (≈ 9.5 µM); MIC [7]: > 32 µg/mL; MIC [8]: ≤ 0.06 µg/mL; MIC [9]: ≤ 0.06 µg/mL; MIC [10]: > 32 µg/mL; MIC [11]: > 32 µg/mL; MIC [12]: ≤ 0.06 µg/mL
CC[C@H]1OC(=O)[C@H](C)C(=O)[C@H](C)[C@@H](O[C@@H]2O[C@H](C)C[C@H](N(C)C)[C@H]2O)[C@](C)(OC)C[C@@H](C)C(=O)[C@H](C)[C@H]2[C@@H](SCCC(=O)Nc3cnc4ccccc4c3)C(=O)O[C@@]21C (single isomer, unassigned) [Example 42] | 16 µg/mL (≈ 19 µM) | 16 µg/mL (≈ 19 µM) | 16 µg/mL (≈ 19 µM) | 16 µg/mL (≈ 19 µM) | 32 µg/mL (≈ 38 µM) | 32 µg/mL (≈ 38 µM) | >32 µg/mL | <=0.06 μg/ml | 0.125 µg/mL (≈ 0.148 µM) | >32 µg/mL | >32 µg/mL | 0.125 µg/mL (≈ 0.148 µM) | –
